Measurements from ChEMBL document CHEMBL6071137, “Synthesis and biological studies of 2-aminothiophene derivatives as positive allosteric modulators of glucagon-like peptide 1 receptor” (2024).
The source made the active and inactive calls. The calls are words filed in the database; no cut-off is given here.

Tests used:
[1] = molecular target: Glucagon-like peptide 1 receptor (Homo sapiens) (UniProt P43220); assay: Positive allosteric modulation of human GLP-1 receptor in HEK cells expressing luciferase2P assessed as fold increase in GLP-1R activity incubated for 4 hrs in presence of GLP-1 by luciferase based assay relative to GLP-1 alone; format: cell-based; details: filed as positive allosteric modulator
[2] = molecular target: Glucagon-like peptide 1 receptor (Homo sapiens) (UniProt P43220); assay: Positive allosteric modulation of human GLP-1 receptor in HEK cells expressing luciferase2P assessed as cAMP level incubated for 4 hrs by luciferase based assay relative to GLP-1; format: functional, cell-based; set-up: concentration or dose not given beside the values; details: filed as positive allosteric modulator
[3] = molecular target: Glucagon-like peptide 1 receptor (Homo sapiens) (UniProt P43220); assay: Positive allosteric modulation of human GLP-1 receptor in HEK cells expressing luciferase2P incubated for 4 hrs in presence of 10 nM of GLP-1 by luciferase based assay; format: cell-based; details: filed as positive allosteric modulator, dose 0.78-100 µM
[4] = molecular target: Glucagon-like peptide 1 receptor (Homo sapiens) (UniProt P43220); assay: Positive allosteric modulation of human GLP-1 receptor in HEK cells expressing luciferase2P at 5 uM incubated for 4 hrs in presence of varying concentrations of GLP-1 by luciferase based assay; format: cell-based; details: filed as positive allosteric modulator
[5] = Induction of glucose dependent insulin secretion in rat INS-1 832/13 cells expressing GLP-1R assessed as fold increase at 5 uM starved for 2 hrs in KRB buffer followed by 16.7 mM of glucose addition and measured after 90 mins in presence of GLP-1 by ELISA; format: functional, INS1(832/13); details: 1.5 h
INS1(832/13) = assay: Induction of glucose dependent insulin secretion in rat INS-1 832/13 cells expressing GLP-1R at 5 uM starved for 2 hrs in KRB buffer followed by glucose addition and measured after 90 mins by ELISA; format: functional, cell-based
[6] = molecular target: T1, Gastric inhibitory polypeptide receptor (Homo sapiens) (UniProt P48546); assay: Positive allosteric modulation of GIPR (unknown origin) transfected in HEK cells expressing luciferase2P assessed as increase in luciferase activity; format: cell-based; details: filed as positive allosteric modulator
T1 sequence (whole entry): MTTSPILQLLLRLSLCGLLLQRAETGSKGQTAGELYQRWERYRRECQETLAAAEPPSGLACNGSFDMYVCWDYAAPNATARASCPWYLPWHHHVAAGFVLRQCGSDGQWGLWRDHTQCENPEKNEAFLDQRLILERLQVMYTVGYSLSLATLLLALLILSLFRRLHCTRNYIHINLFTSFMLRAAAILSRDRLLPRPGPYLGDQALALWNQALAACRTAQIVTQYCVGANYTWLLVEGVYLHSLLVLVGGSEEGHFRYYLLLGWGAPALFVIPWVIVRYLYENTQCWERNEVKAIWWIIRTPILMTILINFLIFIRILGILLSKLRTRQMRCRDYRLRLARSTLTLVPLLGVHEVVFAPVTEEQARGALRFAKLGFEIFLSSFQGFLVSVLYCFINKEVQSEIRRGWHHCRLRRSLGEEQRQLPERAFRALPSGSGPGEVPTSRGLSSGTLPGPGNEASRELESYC

[7] = molecular target: Glucagon receptor (Homo sapiens) (UniProt P47871); assay: Positive allosteric modulation of glucagon receptor (unknown origin) transfected in HEK cells expressing luciferase2P assessed as increase in luciferase activity; format: cell-based; details: filed as positive allosteric modulator
Mus musculus [8] = assay: Anti-diabetic activity against overnight-fasted male CD1 mouse assessed as reduction in blood glucose concentration at 5 mg/kg, ip preadministered with compound for 45 mins followed by 2.5 g/kg dextrose addition and measured after 60 mins by iGTT test; format: functional, organism-based; details: time 105.0 min
Mus musculus [9] = assay: Anti-diabetic activity against overnight-fasted male CD1 mouse assessed as reduction in blood glucose concentration at 10 mg/kg, ip preadministered with compound for 45 mins followed by 2.5 g/kg dextrose addition and measured after 60 mins by iGTT test; format: functional, organism-based; details: time 105.0 min
Mus musculus [10] = assay: Anti-diabetic activity against overnight-fasted male CD1 mouse assessed as reduction in blood glucose concentration at 10 mg/kg, ip preadministered with compound for 45 mins followed by 2.5 g/kg dextrose addition and measured after 60 mins in the presence of sitagliptin by iGTT test relative to control; format: functional; set-up: scale not given: the % may be the effect or the level left; details: time 105 min, 1.75 h
[11] = molecular target: T2, Vasoactive intestinal polypeptide receptor 1 (Homo sapiens) (UniProt P32241); assay: Positive allosteric modulation of VIPR1 (unknown origin) transfected in HEK cells expressing luciferase2P assessed as increase in luciferase activity; format: cell-based; details: filed as positive allosteric modulator
T2 sequence (whole entry): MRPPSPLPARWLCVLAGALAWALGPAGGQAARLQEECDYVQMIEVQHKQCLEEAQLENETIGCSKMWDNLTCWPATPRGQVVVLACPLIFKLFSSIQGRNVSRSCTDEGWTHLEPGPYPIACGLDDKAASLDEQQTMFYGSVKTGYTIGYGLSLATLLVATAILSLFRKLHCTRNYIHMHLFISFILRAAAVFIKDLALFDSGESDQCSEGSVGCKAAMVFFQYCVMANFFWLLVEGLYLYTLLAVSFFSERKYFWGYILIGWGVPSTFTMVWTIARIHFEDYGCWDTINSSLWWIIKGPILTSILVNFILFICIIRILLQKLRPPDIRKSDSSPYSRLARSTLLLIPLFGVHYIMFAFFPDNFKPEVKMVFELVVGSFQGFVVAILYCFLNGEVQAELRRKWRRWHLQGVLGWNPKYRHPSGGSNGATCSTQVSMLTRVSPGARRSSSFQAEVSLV

Mus musculus [12] = assay: Anti-diabetic activity against overnight-fasted male CD1 mouse assessed as reduction in blood glucose concentration at 10 to 30 mg/kg, ip preadministered with compound for 45 mins followed by 2.5 g/kg dextrose addition and measured after 30 mins by iGTT test; format: functional, organism-based; details: dose 10-30 mg/kg, time 75.0 min
Mus musculus [13] = assay: Anti-diabetic activity against overnight-fasted male CD1 mouse assessed as reduction in blood glucose concentration at 10 to 30 mg/kg, ip preadministered with compound for 45 mins followed by 2.5 g/kg dextrose addition and measured after 60 mins by iGTT test relative to control; format: functional; set-up: scale not given: the % may be the effect or the level left; details: dose 10-30 mg/kg, time 105 min, 1.75 h
Mus musculus [14] = assay: Anti-diabetic activity against overnight-fasted male CD1 mouse assessed as reduction in blood glucose concentration at 5 to 30 mg/kg, ip preadministered with compound for 45 mins followed by 2.5 g/kg dextrose addition and measured after 60 mins by iGTT test; format: functional, organism-based; details: dose 5-30 mg/kg, time 105.0 min

Sequence of Glucagon-like peptide 1 receptor (Homo sapiens) (P43220 whole entry): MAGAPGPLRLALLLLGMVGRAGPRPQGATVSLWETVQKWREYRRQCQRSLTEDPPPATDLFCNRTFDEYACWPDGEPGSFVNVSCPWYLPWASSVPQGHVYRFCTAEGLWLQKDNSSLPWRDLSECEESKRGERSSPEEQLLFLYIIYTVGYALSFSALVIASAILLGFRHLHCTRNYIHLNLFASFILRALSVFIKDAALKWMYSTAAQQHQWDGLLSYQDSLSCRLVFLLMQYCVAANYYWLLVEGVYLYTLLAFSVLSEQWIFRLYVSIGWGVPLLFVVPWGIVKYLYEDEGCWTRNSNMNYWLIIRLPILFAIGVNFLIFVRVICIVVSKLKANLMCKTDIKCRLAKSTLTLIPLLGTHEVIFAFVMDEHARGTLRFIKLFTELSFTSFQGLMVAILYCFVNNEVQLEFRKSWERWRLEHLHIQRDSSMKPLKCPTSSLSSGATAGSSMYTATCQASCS
Sequence of Glucagon receptor (Homo sapiens) (P47871 whole entry): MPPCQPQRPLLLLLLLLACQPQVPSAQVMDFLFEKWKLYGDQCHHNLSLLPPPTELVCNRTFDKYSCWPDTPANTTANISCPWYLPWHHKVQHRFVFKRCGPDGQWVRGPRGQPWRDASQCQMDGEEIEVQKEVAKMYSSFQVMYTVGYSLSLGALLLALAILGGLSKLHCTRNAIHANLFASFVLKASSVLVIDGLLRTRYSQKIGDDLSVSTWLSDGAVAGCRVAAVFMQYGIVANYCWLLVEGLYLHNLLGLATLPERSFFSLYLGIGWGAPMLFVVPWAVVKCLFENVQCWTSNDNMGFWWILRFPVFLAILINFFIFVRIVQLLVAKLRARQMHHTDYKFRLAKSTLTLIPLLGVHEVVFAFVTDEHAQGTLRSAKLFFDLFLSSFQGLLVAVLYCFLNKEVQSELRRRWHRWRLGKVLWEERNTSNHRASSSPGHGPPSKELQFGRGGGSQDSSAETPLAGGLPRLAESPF

Compound	fold change (FC) [1]	Activity [2]	other results
CCOC(=O)c1c(N)sc2c1CCC(C(C)C)C2 (racemic)	> 2	247%	–
CCOC(=O)c1c(N)sc2c1CCN(C(=O)OC(C)(C)C)C2	> 2	164%	–
CCOC(=O)c1c(N)sc2c1CCC(C)C2 (racemic)	> 2	159%	–
CCOC(=O)c1c(N)sc2c1CCN(C(C)C)C2	> 2	82.2%	–
CCOC(=O)c1c(N)sc2c1C(C)CCC2 (racemic)	> 2	82%	–
C=CCOC(=O)N1CCc2c(sc(N)c2C(=O)OCC)C1	> 2	232%	–
CCOC(=O)c1c(N)sc2c1CCC(C(C)(C)C)C2 (racemic)	> 2	195%	–
CCOC(=O)c1c(N)sc2c1CCN(C1CC1)C2	> 2	88.3%	–
CCOC(=O)c1c(N)sc2c1CC(C)(C)CC2	> 2	133%	–
CCOC(=O)c1c(N)sc2c1CCN(CC)C2	> 2	94.3%	–
CCOC(=O)c1c(N)sc2c1CCN(C(C)=O)C2	> 2	147%	–
CCOC(=O)c1c(N)sc2c1CCC(C(F)(F)F)C2 (racemic)	> 2	183%	–
Nc1sc2c(c1C(=O)c1ccccc1)CCN(S(=O)(=O)C1CC1)C2	> 2	131%	–
CC1CCc2c(sc(N)c2C(=O)c2ccc(Cl)cc2)C1 (racemic)	> 2	128%	–
CCOC(=O)c1c(N)sc2c1CCOC2	> 2	86.5%	–
CCCC1CCc2c(sc(N)c2C(=O)OCC)C1 (racemic)	> 2	157%	–
CCOC(=O)c1c(N)sc2c1CCN(C)C2	> 2	75.7%	–
Nc1sc2c(c1C(=O)c1ccc(Cl)cc1)CCSC2	> 2	112%	–
CCOC(=O)c1c(N)sc2c1CCN(S(=O)(=O)C1CC1)C2	> 2	106%	–
CCOC(=O)c1c(N)sc2c1CCSC2	> 2	192%	–
Nc1sc2c(c1C(=O)c1ccc(Cl)cc1)CCOC2	> 2	177%	–
CCOC(=O)c1c(N)sc2c1CCC(C)(C)C2	> 2	164%	–

Now from value to compound, other results behind:

fold change (FC) [1]	Activity [2]	Compound	other results
> 2	233%	CCOC(=O)N1CCc2c(sc(N)c2C(=O)c2ccccc2)C1	Activity [3]: Dose-Dependent Effect; Activity [4]: Active; fold change (FC) [5]: >2; Activity (INS1(832/13)): Active
> 2	184%	CCOC(=O)c1c(N)sc2c1CCN(C(=O)OCc1ccccc1)C2	–
> 2	92.5%	Cc1ccc(C(=O)c2c(N)sc3c2CCSC3)cc1	–
> 2	118%	Cc1ccc(C(=O)c2c(N)sc3c2CCOC3)cc1	–
> 2	99.3%	CCN1CCc2c(sc(N)c2C(=O)c2ccc(C)cc2)C1	–
> 2	239%	CC(=O)N1CCc2c(sc(N)c2C(=O)c2ccc(Cl)cc2)C1	–
> 2	258%	CCOC(=O)c1c(N)sc2c1CCN(C(=O)OCC)C2	–
> 2	98.1%	Cc1ccc(C(=O)c2c(N)sc3c2CCN(C(=O)OCc2ccccc2)C3)cc1	–
> 2	222%	CCOC(=O)N1CCc2c(sc(N)c2C(=O)c2ccc(Cl)cc2)C1	–
> 2	196%	CC(=O)N1CCc2c(sc(N)c2C(=O)c2ccc(C)cc2)C1	–
> 2	124%	CN1CCc2c(sc(N)c2C(=O)c2ccc(Cl)cc2)C1	–
> 2	231%	CC(=O)N1CCc2c(sc(N)c2C(=O)c2ccccc2)C1	–
> 2	142%	CS(=O)(=O)N1CCc2c(sc(N)c2C(=O)c2ccc(Cl)cc2)C1	–
> 2	155%	Nc1sc2c(c1C(=O)c1ccc(Cl)cc1)CCN(C(=O)OCc1ccccc1)C2	–
> 2	98.1%	CCOC(=O)N1CCc2c(sc(N)c2C(=O)c2ccc(C)cc2)C1	–
> 2	268%	Cc1ccc(C(=O)c2c(N)sc3c2CCC(C)(C)C3)cc1	Activity [6]: Active; Activity [7]: Active; Activity (Mus musculus [8]): Active; Activity (Mus musculus [9]): Active; Activity (Mus musculus [10]): ~75%; Activity [11]: Active; Activity (Mus musculus [12]): Active; Activity [3]: Dose-Dependent Effect; Activity (Mus musculus [13]): 50%; Activity (Mus musculus [14]): Active; Activity [4]: Active; fold change (FC) [5]: >2; Activity (INS1(832/13)): Active
> 2	247%	C=CCOC(=O)N1CCc2c(sc(N)c2C(=O)c2ccccc2)C1	Activity [3]: Dose-Dependent Effect; Activity [4]: Active; fold change (FC) [5]: >2; Activity (INS1(832/13)): Active
> 2	242%	Cc1ccc(C(=O)c2c(N)sc3c2CCC(C)C3)cc1 (racemic)	Activity [3]: Dose-Dependent Effect; Activity [4]: Active; fold change (FC) [5]: >2; Activity (INS1(832/13)): Active
